Assay results from ChEMBL document CHEMBL2346588, “Design, synthesis, and biological activity of diaryl ether inhibitors of Toxoplasma gondii enoyl reductase” (Bioorg Med Chem Lett, 2013).
Values after ≈ are worked out from the molar mass of the structure shown. Active and inactive are the calls of the source. The calls are words filed in the database; no cut-off is given here.

Columns and labels:
[1] = target: T1, Enoyl-acyl carrier reductase (Toxoplasma gondii) (UniProt Q6UCJ9); assay: Inhibition of Toxoplasma gondii enoyl reductase assessed as conversion of trans-2-acyl-ACP to acyl-ACP at 1 uM
T1 sequence (whole entry): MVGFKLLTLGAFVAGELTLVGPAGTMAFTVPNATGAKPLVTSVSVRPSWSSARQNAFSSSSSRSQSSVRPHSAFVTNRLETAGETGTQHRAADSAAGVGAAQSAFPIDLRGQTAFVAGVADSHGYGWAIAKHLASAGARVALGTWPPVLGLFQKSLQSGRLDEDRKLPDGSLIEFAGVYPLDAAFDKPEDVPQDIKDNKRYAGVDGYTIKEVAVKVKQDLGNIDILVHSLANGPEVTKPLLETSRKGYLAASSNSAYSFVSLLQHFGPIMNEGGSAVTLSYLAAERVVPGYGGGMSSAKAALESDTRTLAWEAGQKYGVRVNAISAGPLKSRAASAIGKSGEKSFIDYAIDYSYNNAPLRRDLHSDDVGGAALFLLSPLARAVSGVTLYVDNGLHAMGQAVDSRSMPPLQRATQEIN

[2] = system: HFF; assay: Cytotoxicity against HFF assessed as inhibition of [3H]-thymidine incorporation after 24 hrs by […] assay; format: cell-based; conditions: human
[3] = system: Toxoplasma gondii; assay: Antiparasitic activity against Toxoplasma gondii type 1 RH expressing YFP infected in HFF assessed as inhibition of [3H]-uracil incorporation after 72 hrs by liquid scintillation counting; format: functional
[4] = target: T2, Enoyl-acyl carrier reductase (Toxoplasma gondii, UniProt Q6UCJ9); assay: Inhibition of Toxoplasma gondii enoyl reductase assessed as conversion of trans-2-acyl-ACP to acyl-ACP
T2 sequence (Q6UCJ9 whole entry): T1 sequence (whole entry)

[5] = system: Plasmodium falciparum; assay: Antimalarial activity against chloroquine-resistant Plasmodium falciparum TM91C235 after 24 hrs by SYBR Green I based fluorescence assay; format: functional, organism-based; conditions: TM91C235, 24 h
[6] = system: Plasmodium falciparum; assay: Antimalarial activity against Plasmodium falciparum D6 after 24 hrs by SYBR Green I based fluorescence assay; format: functional, organism-based; conditions: D6, 24 h
[7] = system: Mus musculus; assay: Toxicity in Toxoplasma gondii infected BALB/c mouse assessed mortality at 75 mg/kg, ip qd for 5 days measured 7 day after infection; format: organism-based; design: dose 75 mg/kg, route intraperitoneal; conditions: in vivo, 168 h
[8] = system: Toxoplasma gondii; assay: Antiparasitic activity against Toxoplasma gondii infected in BALB/c mouse assessed as reduction of parasite burden at 50 mg/kg, ip qd for 5 days; format: functional, organism-based; design: dose 50 mg/kg
[9] = system: Toxoplasma gondii; assay: Antiparasitic activity against Toxoplasma gondii infected in BALB/c mouse assessed as reduction of parasite burden at 25 mg/kg, ip qd for 5 days; format: functional, organism-based; design: dose 25 mg/kg

| Structure (SMILES) | inhibition [1] [%] | INH [2] [µM] | MIC50 [3] [µM] | IC50 [4] [nM] | IC50 [5] [µg/mL] | IC50 [6] [µg/mL] | Activity [7] | Activity [8] | Activity [9] |
| --- | --- | --- | --- | --- | --- | --- | --- | --- | --- |
| Cn1cc(C(=O)Nc2ccc(Cl)cc2O)c(C(F)(F)F)n1 | 27 | > 10 | > 10 | – | – | – | – | – | – |
| CNC(=O)c1ccc(Oc2ccc(Cl)cc2O)o1 | 46 | > 10 | > 10 | – | – | – | – | – | – |
| O=C(O)c1ccc(Oc2ccc(Cl)cc2O)s1 | 48 | > 10 | 10 (≈ 2.71 µg/mL) | – | – | – | – | – | – |
| Oc1cc(Cl)ccc1Oc1ccc(C(F)(F)F)cc1Cl | 95 | > 10 | 4 (≈ 1.29 µg/mL) | 30 | – | – | – | – | – |
| O=S(=O)(c1ccc(Oc2ccc(Cl)cc2O)cc1)N1CCCC1 | 78 | > 10 | 10 (≈ 3.54 µg/mL) | – | – | – | – | – | – |
| O=C(c1ccc(Oc2ccc(Cl)cc2O)s1)N1CCNCC1 | 60 | > 10 | > 10 | – | – | – | – | – | – |
| Cc1cc(NC(=O)c2ccc(Oc3ccc(Cl)cc3O)o2)no1 | 90 | > 10 | 10 (≈ 3.35 µg/mL) | 58 | – | – | – | – | – |
| CC(=O)N1CCN(c2ccc(Oc3ccc(Cl)cc3O)cc2)CC1 | 81 | > 10 | 1.5 (≈ 0.52 µg/mL) | 225 | > 10 | > 10 | Toxic | inactive | – |
| Oc1cc(Cl)ccc1Oc1ccc2ncccc2c1 | 87 | > 10 | 7.5 (≈ 2.04 µg/mL) | 135 | – | – | – | – | – |
| CN1CCN(Cc2ccc(Oc3ccc(Cl)cc3O)cc2)CC1 | 32 | > 10 | > 10 | – | – | – | – | – | – |
| Oc1cc(Cl)ccc1Oc1ccc(Cl)cc1Cl [TRICLOSAN] | – | > 10 | 5 (≈ 1.45 µg/mL) | – | – | – | – | – | Active |
| O=S(=O)(c1ccc(Oc2ccc(Cl)cc2O)cc1)N1CCCCC1 | 81 | > 10 | 10 (≈ 3.68 µg/mL) | – | – | – | – | – | – |
| CC(=O)N1CCN(Cc2ccc(Oc3ccc(Cl)cc3O)s2)CC1 | 73 | > 10 | 5 (≈ 1.83 µg/mL) | 965 | – | – | – | – | – |
| CN1CCN(c2ccc(Oc3ccc(Cl)cc3O)cc2)CC1 | 25 | > 10 | – | – | – | – | – | – | – |
| CC(=O)N1CCN(C(=O)c2ccc(Oc3ccc(Cl)cc3O)o2)CC1 | 45 | > 10 | > 10 | – | – | – | – | – | – |
| CCNC(=O)c1ccc(Oc2ccc(Cl)cc2O)s1 | 75 | 10 | – | – | – | – | – | – | – |
| Oc1cc(Cl)ccc1Oc1ccc(N2CCOCC2)cc1 | 74 | > 10 | > 10 | – | – | – | – | – | – |
| Oc1cc(Cl)ccc1Oc1ccc2ccccc2c1 | 91 | > 10 | 10 (≈ 2.71 µg/mL) | 41 | – | – | – | – | – |
| O=C(O)c1ccc(Oc2ccc(Cl)cc2O)o1 | 79 | > 10 | > 10 | – | – | – | – | – | – |
| CC(C)(C)OC(=O)N1CCN(C(=O)c2ccc(Oc3ccc(Cl)cc3O)s2)CC1 | 76 | > 10 | > 10 | – | – | – | – | – | – |
